Experimental data reported in patent US9518052B2, “Pyrazolopyridines and pyrazolopyrimidines” (Pfizer Inc., priority 2014, dated 2016).

Legend:
Assay type in all cases: biochemical
Conditions in all cases: Caliper assay at 1 mM ATP
[1] = biological target: TYK2 (Homo sapiens (Human), UniProt P29597); assay: JAK Caliper Enzyme Assay at 1 mM ATP (TYK2)
Protocol: (§1) JAK Caliper Enzyme Assay at 1 mM ATP
(§2) Test article was solubilized in dimethyl sulfoxide (DMSO) to a stock concentration of 30 mM. An 11-point half log dilution series was created in DMSO with a top concentration of 600 μM. […] The compound plates were diluted 1 to 60 resulting in a top final assay compound concentration of 10 μM and a 2% DMSO concentration.
(§3) Test article and assay controls were added to a 384-well plate. Reaction mixtures contained 20 mM HEPES, pH 7.4, 10 mM magnesium chloride, 0.01% bovine serum albumin (BSA), 0.0005% Tween 20, 1 mM ATP and 1 μM peptide substrate. […] Enzyme concentrations and incubation times were optimized for each new enzyme preps and were modified slightly over time to ensure 20%-30% phosphorylation. The assays were stopped with a final concentration of 10 mM EDTA, 0.1% Coating Reagent and 100 mM HEPES, pH=7.4. The assay plates were placed on a Caliper Life Science Lab Chip 3000 (LC3000) instrument, and each well was sampled using appropriate separation conditions to measure the unphosphorylated and phosphorylated peptide.

[2] = biological target: JAK2 (Homo sapiens (Human), UniProt O60674); assay: JAK Caliper Enzyme Assay at 1 mM ATP (JAK2)
Protocol: as §1, §2, §3

[3] = biological target: JAK1 (Homo sapiens (Human), UniProt P23458); assay: JAK Caliper Enzyme Assay at 1 mM ATP (JAK1)
Protocol: as §1, §2, §3

[4] = biological target: JAK3 (Homo sapiens (Human), UniProt P52333); assay: JAK Caliper Enzyme Assay at 1 mM ATP (JAK3)
Protocol: as §1, §2, §3

TYK2, sequence (P29597 whole entry, species assumed): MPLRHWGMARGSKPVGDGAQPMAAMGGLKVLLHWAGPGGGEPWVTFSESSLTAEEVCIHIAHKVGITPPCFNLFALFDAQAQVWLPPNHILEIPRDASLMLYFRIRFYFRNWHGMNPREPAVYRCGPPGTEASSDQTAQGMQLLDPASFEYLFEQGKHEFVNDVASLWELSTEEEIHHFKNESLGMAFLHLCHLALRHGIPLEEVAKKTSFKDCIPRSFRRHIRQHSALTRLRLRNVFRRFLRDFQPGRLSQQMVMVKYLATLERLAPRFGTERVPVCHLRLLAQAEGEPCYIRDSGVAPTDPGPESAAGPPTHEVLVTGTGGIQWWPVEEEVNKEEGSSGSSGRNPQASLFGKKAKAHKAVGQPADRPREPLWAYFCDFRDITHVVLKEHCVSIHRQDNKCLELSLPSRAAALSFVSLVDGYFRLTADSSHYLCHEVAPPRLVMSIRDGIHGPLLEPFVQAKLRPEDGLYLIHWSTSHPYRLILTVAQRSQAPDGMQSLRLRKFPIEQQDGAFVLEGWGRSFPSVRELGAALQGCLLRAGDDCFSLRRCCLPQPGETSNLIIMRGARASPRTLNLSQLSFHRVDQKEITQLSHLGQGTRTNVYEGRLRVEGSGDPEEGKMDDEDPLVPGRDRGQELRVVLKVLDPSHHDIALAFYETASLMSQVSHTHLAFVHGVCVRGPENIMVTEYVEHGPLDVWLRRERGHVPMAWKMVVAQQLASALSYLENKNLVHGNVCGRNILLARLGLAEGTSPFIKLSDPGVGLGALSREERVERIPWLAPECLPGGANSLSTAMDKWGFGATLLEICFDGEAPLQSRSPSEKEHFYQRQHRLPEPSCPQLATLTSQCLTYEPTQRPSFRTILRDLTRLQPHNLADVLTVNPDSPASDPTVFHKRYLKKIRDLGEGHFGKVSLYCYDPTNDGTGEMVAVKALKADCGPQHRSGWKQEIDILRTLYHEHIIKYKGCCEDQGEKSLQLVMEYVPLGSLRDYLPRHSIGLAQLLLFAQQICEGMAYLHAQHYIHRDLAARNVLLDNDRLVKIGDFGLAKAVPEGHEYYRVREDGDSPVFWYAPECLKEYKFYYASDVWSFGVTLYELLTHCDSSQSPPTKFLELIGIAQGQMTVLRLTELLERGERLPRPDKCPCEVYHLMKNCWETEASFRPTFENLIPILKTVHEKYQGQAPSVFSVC
JAK2, sequence (O60674 whole entry, species assumed): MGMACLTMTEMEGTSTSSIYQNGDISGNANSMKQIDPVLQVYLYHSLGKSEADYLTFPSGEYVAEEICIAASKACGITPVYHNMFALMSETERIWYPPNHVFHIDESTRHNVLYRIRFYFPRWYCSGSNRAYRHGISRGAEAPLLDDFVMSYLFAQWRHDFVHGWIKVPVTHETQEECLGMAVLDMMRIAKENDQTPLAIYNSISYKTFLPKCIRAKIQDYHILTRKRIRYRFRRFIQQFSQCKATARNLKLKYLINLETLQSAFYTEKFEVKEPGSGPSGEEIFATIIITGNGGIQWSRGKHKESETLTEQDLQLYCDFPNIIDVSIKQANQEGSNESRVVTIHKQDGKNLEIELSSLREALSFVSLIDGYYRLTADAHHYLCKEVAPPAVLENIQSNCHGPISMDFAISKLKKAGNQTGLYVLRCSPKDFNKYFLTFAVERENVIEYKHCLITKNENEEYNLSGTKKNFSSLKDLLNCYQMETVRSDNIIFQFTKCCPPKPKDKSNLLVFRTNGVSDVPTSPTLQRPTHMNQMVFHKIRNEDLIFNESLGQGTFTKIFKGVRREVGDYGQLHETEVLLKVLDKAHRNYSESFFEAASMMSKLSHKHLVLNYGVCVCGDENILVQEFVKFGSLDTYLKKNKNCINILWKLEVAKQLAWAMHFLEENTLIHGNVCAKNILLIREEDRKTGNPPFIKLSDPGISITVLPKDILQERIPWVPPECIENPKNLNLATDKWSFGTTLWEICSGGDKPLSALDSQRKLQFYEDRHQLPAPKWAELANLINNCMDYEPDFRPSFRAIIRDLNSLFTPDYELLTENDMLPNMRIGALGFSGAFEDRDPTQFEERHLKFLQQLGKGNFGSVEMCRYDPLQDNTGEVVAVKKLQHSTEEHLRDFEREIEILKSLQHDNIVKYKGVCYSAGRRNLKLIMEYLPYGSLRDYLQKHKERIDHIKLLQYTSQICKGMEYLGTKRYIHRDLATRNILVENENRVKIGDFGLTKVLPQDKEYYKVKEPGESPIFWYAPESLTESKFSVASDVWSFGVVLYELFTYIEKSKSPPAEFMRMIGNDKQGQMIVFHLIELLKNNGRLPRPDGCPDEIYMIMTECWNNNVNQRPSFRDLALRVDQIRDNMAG
JAK3, sequence (P52333 whole entry, species assumed): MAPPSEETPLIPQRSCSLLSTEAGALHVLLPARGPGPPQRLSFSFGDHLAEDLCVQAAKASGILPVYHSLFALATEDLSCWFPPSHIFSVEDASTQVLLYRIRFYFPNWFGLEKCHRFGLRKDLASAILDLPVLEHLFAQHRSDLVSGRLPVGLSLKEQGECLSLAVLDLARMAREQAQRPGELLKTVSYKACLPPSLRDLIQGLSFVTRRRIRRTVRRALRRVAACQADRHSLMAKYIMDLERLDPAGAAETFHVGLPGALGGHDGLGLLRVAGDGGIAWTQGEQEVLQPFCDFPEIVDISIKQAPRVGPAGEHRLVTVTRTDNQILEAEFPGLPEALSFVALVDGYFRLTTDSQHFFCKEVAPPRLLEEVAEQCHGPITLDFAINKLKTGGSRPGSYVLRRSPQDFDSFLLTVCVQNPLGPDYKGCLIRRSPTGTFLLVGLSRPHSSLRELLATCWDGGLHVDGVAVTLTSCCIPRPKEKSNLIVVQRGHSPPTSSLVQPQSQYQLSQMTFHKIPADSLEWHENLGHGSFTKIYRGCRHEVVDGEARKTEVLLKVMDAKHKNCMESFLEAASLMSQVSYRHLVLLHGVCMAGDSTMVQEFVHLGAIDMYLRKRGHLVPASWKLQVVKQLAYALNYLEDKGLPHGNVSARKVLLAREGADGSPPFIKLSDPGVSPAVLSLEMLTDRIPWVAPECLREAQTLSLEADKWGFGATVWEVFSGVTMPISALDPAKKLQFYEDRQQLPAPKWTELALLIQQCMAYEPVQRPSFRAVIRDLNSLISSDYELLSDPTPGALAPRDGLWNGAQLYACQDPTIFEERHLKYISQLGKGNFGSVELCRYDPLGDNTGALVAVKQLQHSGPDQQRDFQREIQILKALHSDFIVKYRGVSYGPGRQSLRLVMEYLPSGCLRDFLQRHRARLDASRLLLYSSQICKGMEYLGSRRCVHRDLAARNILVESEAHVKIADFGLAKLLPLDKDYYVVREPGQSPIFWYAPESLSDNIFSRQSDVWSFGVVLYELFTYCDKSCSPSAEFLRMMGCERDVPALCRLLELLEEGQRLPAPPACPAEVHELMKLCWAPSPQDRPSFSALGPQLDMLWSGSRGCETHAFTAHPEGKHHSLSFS
JAK1, sequence (P23458 whole entry, species assumed): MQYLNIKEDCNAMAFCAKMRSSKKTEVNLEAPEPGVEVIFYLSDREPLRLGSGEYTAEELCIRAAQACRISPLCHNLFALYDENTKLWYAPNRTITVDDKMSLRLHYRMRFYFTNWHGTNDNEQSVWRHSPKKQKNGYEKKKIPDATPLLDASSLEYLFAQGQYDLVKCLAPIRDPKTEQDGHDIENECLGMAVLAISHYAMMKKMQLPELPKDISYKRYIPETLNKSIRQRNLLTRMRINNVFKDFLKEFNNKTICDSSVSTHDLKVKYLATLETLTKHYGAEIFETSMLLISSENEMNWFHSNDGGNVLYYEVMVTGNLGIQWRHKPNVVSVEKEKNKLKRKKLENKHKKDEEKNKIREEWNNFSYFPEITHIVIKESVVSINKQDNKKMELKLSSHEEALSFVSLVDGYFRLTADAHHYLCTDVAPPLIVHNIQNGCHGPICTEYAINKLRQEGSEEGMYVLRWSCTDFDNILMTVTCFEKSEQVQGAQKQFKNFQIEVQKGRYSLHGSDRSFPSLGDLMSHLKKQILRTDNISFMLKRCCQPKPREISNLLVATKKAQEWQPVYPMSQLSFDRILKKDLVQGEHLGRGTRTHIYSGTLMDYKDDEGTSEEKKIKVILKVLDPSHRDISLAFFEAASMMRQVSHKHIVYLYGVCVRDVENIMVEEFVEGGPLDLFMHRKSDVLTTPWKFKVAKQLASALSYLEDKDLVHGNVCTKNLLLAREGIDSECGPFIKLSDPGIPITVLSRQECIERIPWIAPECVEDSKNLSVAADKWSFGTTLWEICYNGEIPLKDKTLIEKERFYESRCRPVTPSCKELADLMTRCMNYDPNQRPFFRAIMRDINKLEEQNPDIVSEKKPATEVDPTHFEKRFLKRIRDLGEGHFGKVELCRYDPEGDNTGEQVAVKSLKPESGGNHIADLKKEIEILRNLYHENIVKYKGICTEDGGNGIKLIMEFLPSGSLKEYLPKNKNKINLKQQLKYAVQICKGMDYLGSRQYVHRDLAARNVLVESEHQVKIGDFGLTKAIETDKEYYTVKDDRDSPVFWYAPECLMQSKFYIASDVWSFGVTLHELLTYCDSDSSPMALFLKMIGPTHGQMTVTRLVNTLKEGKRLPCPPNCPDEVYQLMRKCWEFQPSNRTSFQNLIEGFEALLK

Compound | IC50 [1] | IC50 [2] | IC50 [3] | IC50 [4]
CCc1cc(O)c(F)cc1-c1cc2[nH]nc(C(=O)NC)c2c(NCc2ccccc2N(C)S(=O)(=O)CC)n1 [Example 3, 6-(2-ethyl-5-fluoro-4-hydroxy-phenyl)-4-({2-[(ethylsulfonyl)-(methyl)amino]benzyl}amino)-N-methyl-1H-pyrazolo[4,3-c]pyridine-3-carboxamide] | 0.0068 µM | 0.0096 µM | 0.0019 µM | 0.0475 µM
CCc1cc(O)c(F)cc1-c1cc2[nH]nc(C(=O)NC)c2c(NCC(C)C)n1 [Example 5, 6-(2-ethyl-5-fluoro-4-hydroxyphenyl)-N-methyl-4-[(2-methylpropyl)amino]-1H-pyrazolo[4,3-c]pyridine-3-carboxamide] | 0.007 µM | 0.0075 µM | 0.0021 µM | 0.0319 µM
CCc1cc(O)c(F)cc1-c1cc2[nH]nc(C(=O)NC)c2c(NCc2cc(Cl)ccc2N(C)S(C)(=O)=O)n1 [Example 6, 4-({5-chloro-2-[methyl(methyl-sulfonyl)amino]benzyl}amino)-6-(2-ethyl-5-fluoro-4-hydroxy-phenyl)-N-methyl-1H-pyrazolo[4,3-c]pyridine-3-carboxamide] | 0.0153 µM | 0.0158 µM | 0.0031 µM | 0.0849 µM
CCc1cc(O)c(F)cc1-c1cc2[nH]nc(C(=O)NC)c2c(NCc2cc(F)ccc2N(C)S(C)(=O)=O)n1 [Example 7, 6-(2-ethyl-5-fluoro-4-hydroxyphenyl)-4-({5-fluoro-2-[methyl(methyl-sulfonyl)amino]benzyl}amino)-N-methyl-1H-pyrazolo[4,3-c]pyridine-3-carboxamide] | 0.0065 µM | 0.0092 µM | 0.0017 µM | 0.049 µM
CCc1cc(O)c(F)cc1-c1cc2[nH]nc(C(=O)NC)c2c(NCc2c(F)cccc2N(C)S(C)(=O)=O)n1 [Example 8, 6-(2-ethyl-5-fluoro-4-hydroxyphenyl)-4-({2-fluoro-6-[methyl(methyl-sulfonyl)amino]benzyl}amino)-N-methyl-1H-pyrazolo[4,3-c]pyridine-3-carboxamide] | 0.0057 µM | 0.0075 µM | 0.0017 µM | 0.0338 µM
CNC(=O)c1n[nH]c2cc(-c3cc(F)c(O)cc3CC(F)(F)F)nc(NCc3cc(C)ccc3N(C)S(C)(=O)=O)c12 [Example 11, 6-[5-fluoro-4-hydroxy-2-(2,2,2-trifluoroethyl)phenyl]-N-methyl-4-({5-methyl-2-[methyl(methyl-sulfonyl)amino]benzyl}amino)-1H-pyrazolo[4,3-c]pyridine-3-carboxamide] | 0.229 µM | 0.0369 µM | 0.0087 µM | 0.207 µM
CNC(=O)c1n[nH]c2cc(-c3cc(F)c(O)cc3CC(F)(F)F)nc(NCc3cc(Cl)ccc3N(C)S(C)(=O)=O)c12 [Example 15, 4-({5-chloro-2-[methyl(methyl-sulfonyl)amino]benzyl}amino)-6-[5-fluoro-4-hydroxy-2-(2,2,2-trifluoroethyl)phenyl]-N-methyl-1H-pyrazolo[4,3-c]pyridine-3-carboxamide] | 0.618 µM | 0.055 µM | 0.0136 µM | 0.342 µM
CNC(=O)c1n[nH]c2cc(-c3cc(F)c(O)cc3CC(F)(F)F)nc(NCC(C)C)c12 [Example 16, 6-[5-fluoro-4-hydroxy-2-(2,2,2-trifluoroethyl)phenyl]-N-methyl-4-[(2-methylpropyl)amino]-1H-pyrazolo[4,3-c]pyridine-3-carboxamide] | 0.066 µM | 0.023 µM | 0.0063 µM | 0.131 µM
CNC(=O)c1n[nH]c2cc(-c3cc(F)c(O)cc3CC(F)(F)F)nc(NCC3CCCC3)c12 [Example 17, 4-[(cyclopentylmethyl)-amino]-6-[5-fluoro-4-hydroxy-2-(2,2,2-trifluoro-ethyl)phenyl]-N-methyl-1H-pyrazolo[4,3-c]pyridine-3-carboxamide] | 0.142 µM | 0.0529 µM | 0.0185 µM | 0.256 µM
CCc1cc(O)c(F)cc1-c1cc2[nH]nc(C(=O)NC)c2c(NCc2ccccc2N(C)S(C)(=O)=O)n1 [Example 19, 6-(2-ethyl-5-fluoro-4-hydroxy-phenyl)-N-methyl-4-({2-[methyl(methyl-sulfonyl)amino]benzyl}amino)-1H-pyrazolo[4,3-c]pyridine-3-carboxamide] | 0.0048 µM | 0.0059 µM | 0.0009 µM | 0.0309 µM
CCc1cc(O)c(F)cc1-c1cc2[nH]nc(C(N)=O)c2c(NCc2ccc(O)cc2N(C)S(C)(=O)=O)n1 [Example 30, 6-(2-Ethyl-5-fluoro-4-hydroxyphenyl)-4-({4-hydroxy-2-[methyl(methylsulfonyl)amino]benzyl}amino)-1H-pyrazolo[4,3-c]pyridine-3-carboxamide] | 0.029 µM | 0.0058 µM | 0.001 µM | 0.0233 µM
CCc1cc(O)c(F)cc1-c1cc2[nH]nc(C(=O)NC)c2c(NCc2cc(O)ccc2N(C)S(C)(=O)=O)n1 [Example 31, 6-(2-Ethyl-5-fluoro-4-hydroxyphenyl)-4-({5-hydroxy-2-[methyl(methylsulfonyl)amino]benzyl}amino)-N-methyl-1H-pyrazolo[4,3-c]pyridine-3-carboxamide] | 0.0046 µM | 0.007 µM | 0.0013 µM | 0.033 µM
CNC(=O)c1n[nH]c2cc(-c3cc(F)c(O)cc3CC(F)(F)F)nc(NCc3ccccc3N(C)S(=O)(=O)c3cccc(O)c3)c12 [Example 32, 6-[5-Fluoro-4-hydroxy-2-(2,2,2-trifluoroethyl)phenyl]-4-[(2-{[(3-hydroxyphenyl)sulfonyl](methyl)amino}benzyl)amino]-N-methyl-1H-pyrazolo[4,3-c]pyridine-3-carboxamide] | 0.373 µM | 0.277 µM | 0.0604 µM | 0.839 µM
CCN(c1ccc(O)cc1CNc1nc(-c2cc(F)c(O)cc2CC(F)(F)F)cc2[nH]nc(C(=O)NC)c12)S(C)(=O)=O [Example 34, 4-({2-[ethyl(methyl-sulfonyl)amino]-5-hydroxybenzyl}amino)-6-[5-fluoro-4-hydroxy-2-(2,2,2-trifluoroethyl)phenyl]-N-methyl-1H-pyrazolo[4,3-c]pyridine-3-carboxamide] | 0.0246 µM | 0.0278 µM | 0.0051 µM | 0.0984 µM
CCN(c1ccc(O)cc1CNc1nc(-c2cc(F)c(O)cc2CC(F)(F)F)cc2[nH]nc(C(=O)NC)c12)S(=O)(=O)c1ccccc1 [Example 36, 4-({2-[ethyl(phenyl-sulfonyl)amino]-5-hydroxybenzyl}amino)-6-[5-fluoro-4-hydroxy-2-(2,2,2-trifluoroethyl)phenyl]-N-methyl-1H-pyrazolo[4,3-c]pyridine-3-carboxamide] | 0.364 µM | 0.401 µM | 0.075 µM | 1.23 µM
CCc1cc(O)c(F)cc1-c1cc2[nH]nc(C(=O)NC)c2c(N[C@H](C)c2ccccc2N(C)S(C)(=O)=O)n1 [Example 38, 6-(2-Ethyl-5-fluoro-4-hydroxyphenyl)-N-methyl-4-{[(1R)-1-{2-[methyl(methylsulfonyl)amino]phenyl}ethyl]amino}-1H-pyrazolo[4,3-c]pyridine-3-carboxamide] | 0.0178 µM | 0.025 µM | 0.004 µM | 0.122 µM
CCc1cc(O)c(F)cc1-c1cc2[nH]nc(C(=O)NC)c2c(N[C@@H](C)c2ccccc2N(C)S(C)(=O)=O)n1 [Example 39, 6-(2-Ethyl-5-fluoro-4-hydroxyphenyl)-N-methyl-4-{[(1S)-1-{2-[methyl(methylsulfonyl)amino]phenyl}ethyl]amino}-1H-pyrazolo[4,3-c]pyridine-3-carboxamide] | 0.32 µM | 0.0482 µM | 0.0323 µM | 0.279 µM
CCc1cc(O)c(F)cc1-c1cc2[nH]nc(C(N)=O)c2c(NCc2ccccc2N(C)S(=O)(=O)c2ccccc2)n1 [Example 40, 6-(2-Ethyl-5-fluoro-4-hydroxyphenyl)-4-({2-[methyl(phenylsulfonyl)amino]benzyl}amino)-1H-pyrazolo[4,3-c]pyridine-3-carboxamide] | 0.0181 µM | 0.0231 µM | 0.0046 µM | 0.13 µM
CCN(c1ccc(O)cc1CNc1nc(-c2cc(F)c(O)cc2CC(F)(F)F)cc2[nH]nc(C(N)=O)c12)S(=O)(=O)c1ccccc1 [Example 43, 4-({2-[ethyl(phenyl-sulfonyl)amino]-5-hydroxybenzyl}amino)-6-[5-fluoro-4-hydroxy-2-(2,2,2-trifluoroethyl)-phenyl]-1H-pyrazolo[4,3-c]pyridine-3-carboxamide] | 0.439 µM | 0.302 µM | 0.0551 µM | 1.07 µM
CCN(c1nccnc1CNc1nc(-c2cc(F)c(O)cc2CC(F)(F)F)cc2[nH]nc(C(=O)NC)c12)S(C)(=O)=O [Example 45, 4-[({3-[ethyl(methyl-sulfonyl)-amino]pyrazin-2-yl}methyl)amino]-6-[5-fluoro-4-hydroxy-2-(2,2,2-trifluoroethyl)phenyl]-N-methyl-1H-pyrazolo[4,3-c]pyridine-3-carboxamide] | 0.148 µM | 0.0189 µM | 0.004 µM | 0.0687 µM
